# Test results published in US6579881B2 (Eisai Co., Ltd., priority 1997, dated 2003).
# Where a name gives a salt, the structure may show the parent alone.
# How the values were obtained:
# [1] = biological target: serotonin 2 receptor (Rattus norvegicus, UniProt P14842); assay: Binding test on [3H] ketanserin (serotonin 2 receptor); details: [3H] ketanserin 0.3 nM, receptor fraction of rat cerebral cortex; read-out: 5HT2
# [2] = biological target: T1, serotonin 1A receptor (Rattus norvegicus, UniProt P19327); assay: Binding test on [3H] 8-hydroxy-dipropylaminotetralin (serotonin 1A receptor); details: [3H] 8-OH-DPAT 0.5 nM, receptor fraction of rat hippocampus; read-out: 5HT1a
# T1 construct: To the receptor fraction of the hippocampus were added a test compound and 0.5 nM of [^3H]; 8-hydroxy-dipropylaminotetralin; from tissue; host or cells: SD rat hippocampus, membrane (receptor) fraction
# T1 sequence (P19327 1-422): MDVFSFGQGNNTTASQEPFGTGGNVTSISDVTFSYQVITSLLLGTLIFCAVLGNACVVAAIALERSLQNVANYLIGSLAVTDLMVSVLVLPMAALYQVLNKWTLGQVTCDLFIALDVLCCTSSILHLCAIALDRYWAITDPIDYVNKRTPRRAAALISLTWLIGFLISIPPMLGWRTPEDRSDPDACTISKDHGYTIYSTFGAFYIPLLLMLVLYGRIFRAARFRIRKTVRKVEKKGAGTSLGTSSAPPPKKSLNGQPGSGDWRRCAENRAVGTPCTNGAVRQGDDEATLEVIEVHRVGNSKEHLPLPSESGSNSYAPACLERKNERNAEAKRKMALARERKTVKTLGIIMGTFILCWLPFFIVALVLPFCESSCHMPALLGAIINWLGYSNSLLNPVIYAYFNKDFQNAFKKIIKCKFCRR
# Experimental: 3) [^3H] 8-Hydroxy-dipropylaminotetralin (8-OH-DPAT).
# (§1) Use was made of SD rats aged 6 to 8 weeks.
# (§2) The rats were sacrificed by dcapitation to extirpate the cerebra.
# Each mixture was homogenized by using a Teflon glass homogenizer and centrifuged at 1,000×g for 10 min. The supernatant thus obtained was further centrifuged at 20,000×g for 20 min. The obtained precipitate was re-suspended in 50 times (based on the intial wet weight; in the case of the hippocampus) or 10 times (in the case of the cortex) as much a 50 mM Tris hydrochloride (pH 7.4) and incubated at room temperature for 30 min. After centrifuging at 20,000×g for 20 min, the obtained precipitate was further suspended and centrifuged twice each in the same manner. The precipitate thus obtained was suspended in 100 times (based on the initial wet weight; in the case of the hippocampus) or 20 times (in the case of the cortex) as much a 50 mM Tris hydrochloride solution (pH 7.4) to thereby give a receptor fraction. This receptor fraction was stored at −80° C. until using.
# (Binding Test on [^3H] 8-hydroxy-dipropylaminotetralin)
# To the receptor fraction of the hippocampus were added a test compound and 0.5 nM of [^3H] 8-hydroxy-dipropylaminotetralin and the resultant mixture was incubated at room temperature for 30 min. Next, it was filtered through a glass filter with the use of a cell harvester. After washing the glass filter with 50 mM Tris hydrochloride (pH 7.4), the radioactivity of the receptor was measured with a liquid scintillation counter. The binding detected in the presence of 10 μM of serotonin binoxalate was referred to as the nonspecific binding.
# IC50 was calculated by the probit method, while Ki was determined in accordance with the following formula:
# wherein c represents the concentration of the radioisotope-labeled compound, and Kd represents the dissociation constant of the radioisotope-labeled compound with respect to the receptor determined by Scatchard's analysis.
# [3] = biological target: α1 adrenalin receptor; assay: Binding test on [3H] prazosin (α1 adrenalin receptor); design: species or system rat; details: [3H] prazosin about 0.2 nM, receptor fraction of rat cerebral cortex
# Experimental: Methysergide maleate was dissolved in distilled water before using.
# as §1, §2
# The hippocampus was mixed with 50 times (on the wet weight basis) as much a 0.32 M sucrose solution while the cortex was mixed with 10 times as much the same solution. Each mixture was homogenized by using a Teflon glass homogenizer and centrifuged at 1,000×g for 10 min. The supernatant thus obtained was further centrifuged at 20,000×g for 20 min. The obtained precipitate was re-suspended in 50 times (based on the intial wet weight; in the case of the hippocampus) or 10 times (in the case of the cortex) as much a 50 mM Tris hydrochloride (pH 7.4) and incubated at room temperature for 30 min. After centrifuging at 20,000×g for 20 min, the obtained precipitate was further suspended and centrifuged twice each in the same manner. The precipitate thus obtained was suspended in 100 times (based on the initial wet weight; in the case of the hippocampus) or 20 times (in the case of the cortex) as much a 50 mM Tris hydrochloride solution (pH 7.4) to thereby give a receptor fraction. This receptor fraction was stored at −80° C. until using.
# (Binding Test on [^3H] Prazosin)
# Next, it was filtered through a glass filter with the use of a cell harvester. After washing the glass filter with 50 mM Tris hydrochloride (pH 7.4), the radioactivity of the receptor was measured with a liquid scintillation counter. The binding detected in the presence of 10 μM of phentolamine was referred to as the nonspecific binding.
# Subsequently, the abilities of typical examples of the compounds of the present invention to bind to the α1 adrenalin receptor were evaluated by the test method described above.
# serotonin 2 receptor, sequence (P14842 whole entry): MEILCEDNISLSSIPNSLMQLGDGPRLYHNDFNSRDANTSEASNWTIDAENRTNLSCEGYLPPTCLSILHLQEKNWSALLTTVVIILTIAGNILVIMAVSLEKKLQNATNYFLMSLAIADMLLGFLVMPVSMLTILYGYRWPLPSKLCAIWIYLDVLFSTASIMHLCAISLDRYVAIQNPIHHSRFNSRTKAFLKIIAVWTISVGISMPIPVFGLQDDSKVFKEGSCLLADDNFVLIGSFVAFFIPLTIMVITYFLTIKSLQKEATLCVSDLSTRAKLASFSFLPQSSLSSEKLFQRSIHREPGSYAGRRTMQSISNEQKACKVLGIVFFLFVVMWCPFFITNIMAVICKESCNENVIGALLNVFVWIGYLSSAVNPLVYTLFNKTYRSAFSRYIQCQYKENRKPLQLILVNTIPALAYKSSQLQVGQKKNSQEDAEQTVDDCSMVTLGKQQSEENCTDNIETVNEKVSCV
Structure (SMILES),melting point,Ki [1],Ki [2],Ki [3]
"O=C(NCc1ccc2ccn(C3CCN(CCc4ccc(F)cc4)CC3)c2c1)n1ccnc1 (as salt: oxalate) [Example 368, 1-[1-(4-fluorophenethyl)piperidin-4-yl]-6-imidazocarbonylaminomethylindole]",156 to 157 °C,–,–,–
"CN(C)CC(=O)NCc1ccc2ccn(C3CCN(CCc4ccc(F)cc4)CC3)c2c1 (as salt: oxalate) [Example 375, 1-[1-(4-fluorophenethyl)piperidin-4-yl]-6-(N,N-dimethylaminoacetamido)methylindole]",112 to 113 °C,–,–,–
"O=C(CN1CCCCC1)NCc1ccc2ccn(C3CCN(CCc4ccc(F)cc4)CC3)c2c1 (as salt: oxalate) [Example 376, 1-[1-(4-fluorophenethyl)piperidin-4-yl]-6-[(piperidin-1-yl)acetamido]methylindole]",113 to 114 °C,–,–,–
"CN(C)CCC(=O)NCc1ccc2ccn(C3CCN(CCc4ccc(F)cc4)CC3)c2c1 (as salt: oxalate) [Example 378, 1-[1-(4-fluorophenethyl)piperidin-4-yl]-6-(3-N,N-dimethylaminopropionyl)aminomethylindole]",104 to 105 °C,–,–,–
"O=C(CCN1CCCCC1)NCc1ccc2ccn(C3CCN(CCc4ccc(F)cc4)CC3)c2c1 (as salt: oxalate) [Example 379, 1-[1-(4-fluorophenethyl)piperidin-4-yl]-6-[3-(piperidin-1-yl)propionylamino]methylindole]",108 to 109 °C,–,–,–
"O=C(CF)NCc1ccc2ccn(C3CCN(CCc4ccccc4F)CC3)c2c1 (as salt: oxalate) [Example 381, 1-[1-(2-fluorophenethyl)piperidin-4-yl]-6-fluoroacetamidomethylindole]",168 to 169 °C,–,–,–
"COc1ccc2c(c1)N(C1CCN(CCc3ccc(F)cc3)CC1)C(C)(C)C2 (as salt: oxalate) [Example 396, 2,2-Dimethyl-1-[1-(4-fluorophenethyl)piperidin-4-yl]-6-methoxyindoline]",228 °C (dec.),–,–,–
"O=[N+]([O-])c1ccc(CCN2CCC(N3CCc4ccccc43)CC2)cc1 [Example 29, 1-[1-(4-nitrophenethyl)piperidin-4-yl]indoline]",95 to 97 °C,36.5 nM,–,–
"CC(C)NC(=O)Cc1ccc2ccn(C3CCN(CCc4ccc(F)cc4)CC3)c2c1 [Example 286, 1-[1-(4-fluorophenethyl)piperidin-4-yl]-6-(N-isopropylcarbamoylmethyl)indole]",146 to 148 °C,3.12 nM,3.74 nM,–
"CCNC(=O)Cc1ccc2ccn(C3CCN(CCc4ccc(F)cc4)CC3)c2c1 [Example 294, 1-[1-(4-fluorophenethyl)piperidin-4-yl]-6-(ethylcarbamoylmethyl)indole]",159.6 to 160.1 °C,2.86 nM,1.05 nM,80.7 nM
"O=C(Cc1ccc2ccn(C3CCN(CCc4ccc(F)cc4)CC3)c2c1)NC1CC1 [Example 295, 1-[1-(4-fluorophenethyl)piperidin-4-yl]-6-[N-(cyclopropylcarbamoyl)methyl]indole]",156.4 to 156.8 °C,3.64 nM,0.85 nM,195 nM
"CC(C)CNC(=O)Cc1ccc2ccn(C3CCN(CCc4ccc(F)cc4)CC3)c2c1 [Example 296, 1-[1-(4-fluorophenethyl)piperidin 4-yl]-6-[N-(isobutylcarbamoyl)methyl]indole]",131.8 to 132.2 °C,2.73 nM,0.32 nM,238 nM
"CCCNC(=O)Cc1ccc2ccn(C3CCN(CCc4ccc(F)cc4)CC3)c2c1 [Example 297, 1-[1-(4-fluorophenethyl)piperidin-4-yl]-6-(n-propylcarbamoylmethyl)indole]",131.1 to 131.9 °C,4.17 nM,0.98 nM,226 nM
"NC(=O)Cc1ccc2ccn(C3CCN(CCc4ccc(F)cc4F)CC3)c2c1 [Example 299, 1-[1-(2,4-difluorophenethyl)piperidin-4-yl]-6-carbamoylmethylindole]",156.9 to 157.8 °C,2.54 nM,0.11 nM,–
"O=C(Cc1ccc2ccn(C3CCN(CCc4ccc(F)cc4)CC3)c2c1)NCCO [Example 300, 1-[1-(4-fluorophenethyl)piperidin-4-yl]-6-(2-hydroxyethyl)carbamoylmethylindole]",140 to 141.2 °C,3.55 nM,1.73 nM,225 nM
"CN(C)C(=O)Cc1ccc2ccn(C3CCN(CCc4ccc(F)cc4)CC3)c2c1.O=C(O)C(=O)O [Example 301, 1-[1-(4-fluorophenethyl)piperidin-4-yl]-6-dimethylcarbamoylmethylindole Oxalate]",170.1 to 170.6 °C,21.9 nM,0.8 nM,66.9 nM
"O=C(Cc1ccc2ccn(C3CCN(CCc4ccc(F)cc4)CC3)c2c1)N1CCC(O)CC1 [Example 302, 1-[1-(4-fluorophenethyl)piperidin-4-yl]-6-(4-hydroxypiperidin-1-ylcarbonylmethyl)indole]",190.5 to 192.2 °C (dec.),60.5 nM,2.92 nM,143 nM
"O=C(Cc1ccc2ccn(C3CCN(CCc4ccc(F)cc4)CC3)c2c1)NC(CO)CO.O=C(O)C(=O)O [Example 304, 1-[1-(4-fluorophenethyl)piperidin-4-yl]-6-(1,3-dihydroxypropan-2-yl)carbamoylmethylindole Oxalate]",213.1 to 214.5 °C (dec.),6.26 nM,8.37 nM,141 nM
"NC(=O)Cc1ccc2ccn(C3CCN(CCc4ccc(F)cc4)CC3)c2c1 [Example 305, 1-[1-(4-fluorophenethyl)piperidin-4-yl]-6-carbamoylmethylindole]",159.1 to 160.8 °C,3.29 nM,0.06 nM,35.9 nM
"CN(C)CCNC(=O)Cc1ccc2ccn(C3CCN(CCc4ccc(F)cc4)CC3)c2c1 [Example 307, 1-[1-(4-fluorophenethyl)piperidin-4-yl]-6-(2-dimethylaminoethyl)carbamoylmethylindole]",111.8 to 112.9 °C,0.83 nM,7.02 nM,51.5 nM
"COCCNC(=O)Cc1ccc2ccn(C3CCN(CCc4ccc(F)cc4)CC3)c2c1 [Example 309, 1-[1-(4-fluorophenethyl)piperidin-4-yl]-6-(2-methoxyethyl)carbamoylmethylindole]",113.2 to 114.4 °C,1.02 nM,3.85 nM,123 nM
"O=C(Cc1ccc2ccn(C3CCN(CCc4ccc(F)cc4)CC3)c2c1)NCCF [Example 310, 1-[1-(4-fluorophenethyl)piperidin-4-yl]-6-(2-fluoroethyl)carbamoylmethylindole]",163.3 to 163.8 °C,2.29 nM,1.34 nM,84.4 nM
"CNC(=O)Cc1ccc2ccn(C3CCN(CCc4ccc(F)cc4)CC3)c2c1 [Example 316, 1-[1-(4-fluorophenethyl)piperidin-4-yl]-6-methylcarbamoylmethylindole]",149.4 to 150.5 °C,1.26 nM,1.82 nM,63.7 nM
"CCS(=O)(=O)Nc1ccc2ccn(C3CCN(CCc4ccc(F)cc4)CC3)c2c1 [Example 335, 1-[1-(4-fluorophenethyl)piperidin-4-yl]-6-(N-methylmethanesulfonylamino)indole]",192 to 194 °C,–,–,–
"NC(=O)c1ccc2ccn(C3CCN(CCc4ccc(F)cc4)CC3)c2c1 [Example 337, 1-[1-(4-fluorophenethyl)piperidin-4-yl]-6-carbamoylindole]",238 to 240 °C,> 20 nM,< 0.2 nM,–
"NCc1ccc2ccn(C3CCN(CCc4ccccc4F)CC3)c2c1 [Example 348, 1-[1-(2-fluorophenethyl)piperidin-4-yl]-6-aminomethylindole]",86 to 87 °C,–,–,–
"CC(=O)NCc1ccc2ccn(C3CCN(CCCCc4ccc(F)cc4)CC3)c2c1 [Example 356, 1-{1-[4-(4-fluorophenyl)butyl]-piperidin-4-yl}-6-acetamidomethylindole]",59 to 60 °C,> 20 nM,1.52 nM,–
"O=C(CCl)NCc1ccc2ccn(C3CCN(CCc4ccc(F)cc4)CC3)c2c1 [Example 373, 1-[1-(4-fluorophenethyl)piperidin-4-yl]-6-chloroacetamidomethylindole]",143 to 144 °C,1.77 nM,0.24 nM,–
"COC(=O)NCc1ccc2ccn(C3CCN(CCc4ccc(F)cc4)CC3)c2c1 [Example 384, 1-[1-(4-fluorophenethyl)piperidin-4-yl]-6-methoxycarbonylaminomethylindole]",117 to 118 °C,0.25 nM,0.13 nM,–
"CC(=O)NCc1ccc2ccn(C3CCN(CCc4ccc(Br)cc4)CC3)c2c1 [Example 389, 1-[1-(4-bromophenethyl)piperidin-4-yl]-6-acetamidomethylindole]",140 to 141 °C,15.5 nM,0.53 nM,–
